Read-outs that look alike come from different tables or passages of the source.
Legend:
memapsin 2 = memapsin 2 (Homo sapiens, UniProt P56817); assay: Inhibition of memapsin 2 beta-secretase activity (fluorogenic substrate FS-2); assay type: biochemical; conditions: memapsin 2, pH 4, 37° C., read-out: M2Ki
In short: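 Kinetic fluorogenic assay: hydrolysis of the MCA/DNP-labelled APP Swedish-variant peptide FS-2 monitored as fluorescence rise at 37° C, pH 4, after 20 min enzyme–compound preincubation. Relative rates fitted with a tight-binding inhibitor model.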

[1] = system: Aβ production in Chinese hamster ovary cells that over-express human APP695 with the London and Swedish mutations; assay: Cellular Aβ IC50 determination (Aβ40 sandwich ELISA); assay type: cell-based; conditions: Cricetulus griseus
In short: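 Aβ40 in media quantified by sandwich ELISA, normalized to control incubations and fitted with a 4-parameter IC50 model. Compounds dosed to a final concentration near 4 μM (0.4% DMSO) on CHO cells expressing human APP695 (London and Swedish mutants) seeded at 10% confluency.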

[2] = cellular Aβ production, read-out: IC50

Chain of memapsin 2 (P56817 46-501): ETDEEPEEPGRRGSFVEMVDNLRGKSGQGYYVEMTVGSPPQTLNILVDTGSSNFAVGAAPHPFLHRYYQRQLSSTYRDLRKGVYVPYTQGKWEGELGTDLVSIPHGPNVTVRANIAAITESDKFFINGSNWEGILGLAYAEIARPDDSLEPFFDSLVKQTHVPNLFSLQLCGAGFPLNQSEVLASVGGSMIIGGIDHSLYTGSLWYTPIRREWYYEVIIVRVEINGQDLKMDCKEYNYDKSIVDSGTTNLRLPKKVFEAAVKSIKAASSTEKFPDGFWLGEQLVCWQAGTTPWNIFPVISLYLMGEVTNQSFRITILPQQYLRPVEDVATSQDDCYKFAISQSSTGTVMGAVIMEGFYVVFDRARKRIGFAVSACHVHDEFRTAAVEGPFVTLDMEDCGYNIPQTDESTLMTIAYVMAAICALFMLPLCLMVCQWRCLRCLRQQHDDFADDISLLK

Row | Ki (memapsin 2; 20 minutes pre-incubation) | IC50 [1, 2] | Ki (memapsin 2; fluorogenic substrate FS-2) | SMILES | IC50 [1]
1 | < 300 nM | < 1000 nM | – | Cc1csc(CN(C)C(=O)c2cccc(C(=O)N[C@@H](Cc3ccccc3)[C@H](O)CNCc3cccc(C(C)(F)F)c3)c2)n1 [Compound 145, N1-((2S,3R)-4-(3-(1,1-difluoroethyl)benzylamino)-3-hydroxy-1-phenylbutan-2-yl)-N3-methyl-N3-((4-methylthiazol-2-yl)methyl)isophthalamide] | –
2 | < 300 nM | < 1000 nM | – | Cc1csc(CN(C)C(=O)c2cccc(C(=O)N[C@@H](Cc3ccccc3)[C@H](O)CN[C@H](C)c3cncc(C(C)C)c3)c2)n1 [Compound 206, N1-((2S,3R)-3-hydroxy-4-((R)-1-(5-isopropylpyridin-3-yl)ethylamino)-1-phenylbutan-2-yl)-N3-methyl-N3-((4-methylthiazol-2-yl)methyl)isophthalamide] | –
3 | < 300 nM | < 1000 nM | – | C[C@@H](NC(=O)c1cc(C(=O)N[C@@H](Cc2ccccc2)[C@H](O)CNCc2cccc(C(F)F)c2)cc(N(C)S(C)(=O)=O)c1)c1ccccc1 [Compound 142, N1-((2S,3R)-4-(3-(difluoromethyl)benzylamino)-3-hydroxy-1-phenylbutan-2-yl)-5-(N-methylmethylsulfonamido)-N3-((R)-1-phenylethyl)isophthalamide] | –
4 | – | < 1000 nM | < 300 nM | Cc1csc(CN(C)C(=O)c2cccc(C(=O)N[C@@H](Cc3ccccc3)[C@H](O)CNCc3cncc(C(C)(F)F)c3)c2)n1 [Compound 217, N1-((2S,3R)-4-((5-(1,1-difluoroethyl)pyridin-3-yl)methylamino)-3-hydroxy-1-phenylbutan-2-yl)-N3-methyl-N3-((4-methylthiazol-2-yl)methyl)isophthalamide] | –
5 | – | < 1000 nM | < 300 nM | Cc1csc(CN(C)C(=O)c2cc(C(=O)N[C@@H](Cc3ccccc3)[C@H](O)CNCc3cccc(C(C)(F)F)c3)cc(N(C)C)c2)n1 [Compound 227, N1-((2S,3R)-4-(3-(1,1-difluoroethyl)benzylamino)-3-hydroxy-1-phenylbutan-2-yl)-5-(dimethylamino)-N3-methyl-N3-((4-methylthiazol-2-yl)methyl)isophthalamide] | –
6 | < 300 nM | < 1000 nM | – | COC(=O)c1cc(CNC[C@@H](O)[C@H](Cc2ccccc2)NC(=O)c2cc(C(=O)N[C@H](C)c3ccccc3)cc(N(C)S(C)(=O)=O)c2)cc(OC)c1 [Compound 114, methyl 3-(((2R,3S)-2-hydroxy-3-(3-(N-methylmethylsulfonamido)-5-((R)-1-phenylethylcarbamoyl)benzamido)-4-phenylbutylamino)methyl)-5-methoxybenzoate] | –
7 | > 501 nM | > 5000 nM | – | COc1cccc(CNC[C@@H](O)[C@H](Cc2ccccc2)NC(=O)c2cccc(C(=O)N(C)Cc3ncc(C)s3)c2)c1 [Compound 6, N1-((2S,3R)-3-hydroxy-4-(3-methoxybenzylamino)-1-phenylbutan-2-yl)-N3-methyl-N3-((5-methylthiazol-2-yl)methyl)isophthalamide] | –
8 | – | > 5000 nM | < 300 nM | Cc1csc(CN(C)C(=O)c2cc(C(=O)N[C@@H](Cc3ccccc3)[C@H](O)CNCc3cncc(C(C)C)c3)cc(N3CCCCC3)c2)n1 [Compound 231, N1-((2S,3R)-3-hydroxy-4-((5-isopropylpyridin-3-yl)methylamino)-1-phenylbutan-2-yl)-N3-methyl-N3-((4-methylthiazol-2-yl)methyl)-5-(piperidin-1-yl)isophthalamide] | –
9 | < 300 nM | < 1000 nM | – | COc1cccc(F)c1CNC[C@@H](O)[C@H](Cc1ccccc1)NC(=O)c1cccc(C(=O)N(C)Cc2nc(C)cs2)c1 [Compound 50, N1-((2S,3R)-4-(2-fluoro-6-methoxybenzylamino)-3-hydroxy-1-phenylbutan-2-yl)-N3-methyl-N3-((4-methylthiazol-2-yl)methyl)isophthalamide] | –
10 | < 300 nM | < 1000 nM | – | Cc1csc(CN(C)C(=O)c2cccc(C(=O)N[C@@H](Cc3ccccc3)[C@H](O)CNCc3cncc(C(C)(C)C)c3)c2)n1 [Compound 190, N1-((2S,3R)-4-((5-tert-butylpyridin-3-yl)methylamino)-3-hydroxy-1-phenylbutan-2-yl)-N3-methyl-N3-((4-methylthiazol-2-yl)methyl)isophthalamide] | –
11 | < 300 nM | < 1000 nM | – | COc1cccc(CNC[C@@H](O)[C@H](Cc2ccccc2)NC(=O)c2cc(C(=O)N(C)Cc3nc(C)cs3)cc(-c3ccccc3)c2)c1 [Compound 78, N3-((2S,3R)-3-hydroxy-4-(3-methoxybenzylamino)-1-phenylbutan-2-yl)-N5-methyl-N5-((4-methylthiazol-2-yl)methyl)biphenyl-3,5-dicarboxamide] | –
12 | < 300 nM | < 1000 nM | – | C[C@@H](NC(=O)c1cc(C(=O)N[C@@H](Cc2ccccc2)[C@H](O)CNCc2cccc(CO)c2)cc(N(C)S(C)(=O)=O)c1)c1ccccc1 [Compound 107, N1-((2S,3R)-3-hydroxy-4-(3-(hydroxymethyl)benzylamino)-1-phenylbutan-2-yl)-5-(N-methylmethylsulfonamido)-N3-((R)-1-phenylethyl)isophthalamide] | –
13 | < 300 nM | < 1000 nM | – | Cc1csc(CN(C)C(=O)c2cccc(C(=O)N[C@@H](Cc3ccccc3)[C@H](O)CNCc3cccc(C4CC4)c3)c2)n1 [Compound 12, N1-((2S,3R)-4-(3-cyclopropylbenzylamino)-3-hydroxy-1-phenylbutan-2-yl)-N3-methyl-N3-((4-methylthiazol-2-yl)methyl)isophthalamide] | –
14 | < 300 nM | < 1000 nM | – | CCN(CC)c1cc(C(=O)N[C@@H](Cc2ccccc2)[C@H](O)CNCc2cncc(C(C)C)c2)cc(C(=O)N(C)Cc2nc(C)cs2)c1 [Compound 172, 5-(diethylamino)-N1-((2S,3R)-3-hydroxy-4-((5-isopropylpyridin-3-yl)methylamino)-1-phenylbutan-2-yl)-N3-methyl-N3-((4-methylthiazol-2-yl)methyl)isophthalamide] | –
15 | < 300 nM | < 1000 nM | – | Cc1csc(CN(C)C(=O)c2cccc(C(=O)N[C@@H](Cc3ccccc3)[C@H](O)CNCc3cccc(C(C)Cl)c3)c2)n1 (stereo partly drawn) [Compound 173, N1-((2S,3R)-4-(3-(1-chloroethyl)benzylamino)-3-hydroxy-1-phenylbutan-2-yl)-N3-methyl-N3-((4-methylthiazol-2-yl)methyl)isophthalamide] | –
16 | < 300 nM | < 1000 nM | – | Cc1csc(CN(C)C(=O)c2cccc(C(=O)N[C@@H](Cc3ccccc3)[C@H](O)CNCc3cc(C(C)C)cc(N(C)S(C)(=O)=O)c3)c2)n1 [Compound 146, N1-((2S,3R)-3-hydroxy-4-(3-isopropyl-5-(N-methylmethylsulfonamido)benzylamino)-1-phenylbutan-2-yl)-N3-methyl-N3-((4-methylthiazol-2-yl)methyl)isophthalamide] | –
17 | > 501 nM | > 5000 nM | – | Cc1csc(CN(C)C(=O)c2cccc(C(=O)N[C@@H](Cc3ccccc3)[C@H](O)CNCc3ccncc3)c2)n1 [Compound 26, N1-((2S,3R)-3-hydroxy-1-phenyl-4-(pyridin-4-ylmethylamino)butan-2-yl)-N3-methyl-N3-((4-methylthiazol-2-yl)methyl)isophthalamide] | –
18 | < 300 nM | < 1000 nM | – | CC(=O)c1cccc(CNC[C@@H](O)[C@H](Cc2ccccc2)NC(=O)c2cccc(C(=O)N(C)Cc3nc(C)cs3)c2)c1 [Compound 124, N1-((2S,3R)-4-(3-acetylbenzylamino)-3-hydroxy-1-phenylbutan-2-yl)-N3-methyl-N3-((4-methylthiazol-2-yl)methyl)isophthalamide] | –
19 | 301 to 500 nM | < 1000 nM | – | Cc1csc(CNC(=O)c2cccc(C(=O)N[C@@H](Cc3ccccc3)[C@H](O)CNCc3cc(C(C)C)c(C)nc3C)c2)n1 [Compound 93, N1-((2S,3R)-3-hydroxy-4-((5-isopropyl-2,6-dimethylpyridin-3-yl)methylamino)-1-phenylbutan-2-yl)-N3-((4-methylthiazol-2-yl)methyl)isophthalamide] | –
20 | < 300 nM | < 1000 nM | – | C=C(C)c1cncc(CNC[C@@H](O)[C@H](Cc2ccccc2)NC(=O)c2cccc(C(=O)N(C)Cc3nc(C)cs3)c2)c1 [Compound 22, N1-((2S,3R)-3-hydroxy-1-phenyl-4-((5-(prop-1-en-2-yl)pyridin-3-yl)methylamino)butan-2-yl)-N3-methyl-N3-((4-methylthiazol-2-yl)methyl)isophthalamide] | –
21 | – | < 1000 nM | < 300 nM | Cc1csc(CN(C)C(=O)c2cc(C(=O)N[C@@H](Cc3ccccc3)[C@H](O)CNCc3cncc(C(C)(F)F)c3)cc(C(F)F)c2)n1 [Compound 245, N1-((2S,3R)-4-((5-(1,1-difluoroethyl)pyridin-3-yl)methylamino)-3-hydroxy-1-phenylbutan-2-yl)-5-(difluoromethyl)-N3-methyl-N3-((4-methylthiazol-2-yl)methyl)isophthalamide] | –
22 | < 300 nM | < 1000 nM | – | Cc1csc(CN(C)C(=O)c2cccc(C(=O)N[C@@H](Cc3ccccc3)[C@H](O)CNC(C)c3cncc(C(C)C)c3)c2)n1 (stereo partly drawn) [Compound 148, N1-((2S,3R)-3-hydroxy-4-(1-(5-isopropylpyridin-3-yl)ethylamino)-1-phenylbutan-2-yl)-N3-methyl-N3-((4-methylthiazol-2-yl)methyl)isophthalamide] | –

Row | SMILES | Ki (memapsin 2; 20 minutes pre-incubation) | IC50 [1, 2] | Ki (memapsin 2; fluorogenic substrate FS-2) | IC50 [1]
23 | Cc1csc(CN(C)C(=O)c2cccc(C(=O)N[C@@H](Cc3ccccc3)[C@H](O)CNCc3cc(OC(=O)N4CCOCC4)cc(C(C)C)c3)c2)n1 [Compound 234, 3-(((2R,3S)-2-hydroxy-3-(3-(methyl((4-methylthiazol-2-yl)methyl)carbamoyl)benzamido)-4-phenylbutylamino)methyl)-5-isopropylphenyl morpholine-4-carboxylate] | – | – | < 300 nM | < 1000 nM

From patent US20100286145A1, “ISOPHTHALAMIDE DERIVATIVES INHIBITING BETA-SECRETASE ACTIVITY” (CoMentis, Inc., priority 2007, published 2010)
